Assay results as given in US7368429B2, “Peptide specificity of anti-myelin basic protein and the administration of myelin basic protein peptides to multiple sclerosis patients” (The Governors of the University of Alberta, priority 1991, dated 2008).
Entries after “also recorded” stand apart in the source; their conditions may differ. One block for each molecule: values may come before it. Where a SMILES comes first, the peptide text is derived from it. Where no end group is shown, it is not given here.

Assays:
[1] = tested on: anti-MBP purified from CSF of MS patients; test: In vitro neutralization of purified anti-MBP (liquid phase assay, then solid phase radioimmunoassay); assay type: binding, human; conditions: for REACTIVITY WITH ANTI-MBP: purified anti-MBP, h-MBP 0-1000 ng, peptides 0-10,000 ng, 1.5 hours incubation; for neutralization of purified anti-MBP: pooled anti-MBP from 10 MS patients, FIG. 2; for neutralization of anti-MBP purified from individual patients: anti-MBP from 7 individual MS patients, FIG. 3; for times less effective on a molar basis than intact MBP at causing inhibition: peptides giving complete inhibition
Excerpt: Purified MBP was coupled to CNBr-activated Sepharose 4B (Pharmacia™) according to the manufacturer's instructions. Purified CSF IgG containing increased anti-MBP levels from 35 patients with acute MS relapses was used to isolate anti-MBP by MBP-Sepharose affinity chromatography (Warren, K. G. and Catz, I., J Neurol Sci 103:90-96, 1991). Purified anti-MBP samples were compared with the initial IgG source by poly-acrylamide gel electrophoresis. When purified anti-MBP samples were absorbed to zero with MBP, the post-absorption supernatants contained no residual IgG indicating the purity of anti-MBP.
Constant amounts of anti-MBP (15 radioactivity binding units corresponding to 100 for scale expansion purposes=% 0) were incubated with increasing amounts of h-MBP (0-1000 ng) or individual peptides of MBP (0-10,000 ng) in a liquid phase assay and after 1.5 hours incubation, free anti-MBP levels were determined in all mixtures. Anti-MBP isolated from 7 individual MS patients or pooled anti-MBP from 10 different MS patients were used in neutralization experiments. […] Another mouse monoclonal antibody to epitope 45-50 was used as negative antibody control.
Anti-MBP levels were determined by a solid phase radioimmunoassay with human MBP (Warren, K. G. and Catz, I., Ann Neurol 209:20-25, 1986; Warren, K. G. and Catz, I., Ann Neurol 21:183-187, 1987; and Warren, K. G. and Catz, I., J Neurol Sci 91:143-151, 1989). Free anti-MBP levels were measured in all fractions from affinity chromatography and in all neutralization mixtures. All individual samples were run in quadruplicate using the same iodinated material in order to minimize between-assay variability.

[2] = Safety monitoring of MS patients after peptide administration; assay type: in vivo, human
CSF anti-MBP = test: Intrathecal peptide administration to MS patients, CSF anti-MBP by radioimmunoassay; assay type: in vivo, human
Description: Anti-MBP levels were determined by a solid phase radioimmunoassay with human MBP coated on Immulon microtiter wells. Immulon microtiter wells were coated with 100 μl of 10 μg/ml of MBP (1 μg/well) and incubated overnight at 37° C. After quenching with bovine serum albumin (BSA) and three water washes, the wells were stored at room temperature. Samples of 100 μl of CSF or tissue extracts diluted to 0.010 gm of IgG/l (with 0.01 M Barbitol Buffered Saline (BBS) pH 6.9-7.1, 0.5% BSA and 0.05% Tween 20) were incubated in MBP-coated wells for 1-2 hours at room temperature. After 5 buffer washes (with 0.01 M BBS, 0.5 BSA and 0.05% Tween 20), wells were incubated with goat […] IgG-Fc specific (in 0.01 M BBS, 0.05% Tween 20, 0.5% BSA) for 1 hour at room temperature and then rinsed as above. Finally, ^125I-protein A (or ^125I-protein G) was added and incubated for 1 hour at room temperature. When ^125I-protein G was used as a tracer, ovalbumin replaced BSA in assay buffer and for quenching. After three final water washes wells were individually counted. Results are expressed in radioactivity defined as: (counts of sample−counts of blank)÷(counts of total radioactivity−counts of blank). All samples are run in 10 replicate and counting time is 10 minutes in order to collect>10,000 counts for any positive sample.
Prior to being assayed all CSF and/or tissue samples were diluted to a final IgG concentration of 0.010 g/l. F anti-MBP was detected directly in CSF or tissue extract while B levels of antibody were determined following acid hydrolysis of immune complexes with glycine HCl buffer pH 2.2. […] For epitope localization, synthetic peptides were firstly reacted with purified antibody in a liquid phase competitive assay and then anti-MBP was determined by radioimmunoassay in all resulting supernatants. Results of the combined competitive binding assay and radioimmunoassay were expressed as percent inhibition of synthetic peptide defined as 100—radioactivity units. Samples were done in 10 replicates and counted for 10 minutes each in a LKB1275 Minigamma counter. […]
A Phase 1 experiment to determine the effect of synthetic peptide MBP75-95 on F and B titers of CSF anti-MBP was conducted. […] After obtaining informed consent, 14 patients volunteered for this study; eight patients were selected on the basis of their initial titre of F CSF anti-MBP (above 8 radioactivity units) (Table 2) to receive one intrathecal injection of either peptide MBP75-95 which bound anti-MBP in vitro or a non-binding control peptide MBP35-58 (Warren and Catz, 1993b). […] Cell counts, total protein, glucose, IgG and albumin levels were determined in all CSF samples obtained. F and B anti-MBP levels were determined by radioimmunoassay, as described above. […]

[3] = target: purified anti-MBP (antibodies to human myelin basic protein purified from CSF of multiple sclerosis patients; pooled from 10 different patients); test: liquid-phase neutralization + solid-phase RIA on human MBP; reference intact MBP
[4] = target: purified B (bound) anti-MBP from MS brain tissue; test: liquid-phase competitive inhibition + solid-phase RIA on human MBP (FIG. 10)
[5] = target: purified F (free) anti-MBP from MS brain tissue; test: as above
[6] = target: free (F) anti-MBP in the CSF of MS patients; test: cell-based or functional assay
[7] = target: purified B (bound) anti-MBP from MS brain tissue; test: competitive inhibition assays using a series of 41 decapeptides

Molecule: 26-40: synthetic peptide of human MBP sequence 26-40 (HGFLPRHRDTGILDS)
REACTIVITY WITH ANTI-MBP [1]: −

Molecule: 117-129: synthetic peptide of human MBP sequence 117-129 (GAEGQRPGFGYGG)
REACTIVITY WITH ANTI-MBP [1]: −

Molecule: 141-155: synthetic peptide of human MBP sequence 141-155 (FKGVDAQGTLSKIFK)
REACTIVITY WITH ANTI-MBP [1]: −

Molecule: CC[C@H](C)[C@H](NC(=O)[C@H](CC(N)=O)NC(=O)[C@H](CCCCN)NC(=O)[C@H](Cc1ccccc1)NC(=O)[C@H](Cc1ccccc1)NC(=O)[C@H](Cc1c[nH]cn1)NC(=O)[C@@H](NC(=O)[C@@H](NC(=O)[C@@H]1CCCN1C(=O)[C@H](CC(N)=O)NC(=O)[C@H](CCC(=O)O)NC(=O)[C@H](CC(=O)O)NC(=O)[C@H](CCC(N)=O)NC(=O)[C@@H](NC(=O)[C@H](CCCNC(=N)N)NC(=O)CNC(=O)[C@H](Cc1c[nH]cn1)NC(=O)[C@H](CO)NC(=O)[C@@H](N)CCCCN)[C@@H](C)O)C(C)C)C(C)C)C(=O)N[C@H](C(=O)N[C@H](C(=O)O)[C@@H](C)O)C(C)C [MBP75-95] (H-KSHGRTQDENPVVHFFKNIVT-OH; N-terminus and C-terminus assumed)
adverse effects ([2]; 500 mg intravenously over 30 minutes, patient 8M41): No adverse effects were observed | systemic complications (electrolytes, cardiac-liver-kidney dysfunction, hematology) ([2]; repeated intrathecal inoculations): no adverse complications have occurred

solubility in normal saline (Solubility of peptides): very low solubility
Molecule: CC[C@H](C)[C@H](NC(=O)[C@H](CC(N)=O)NC(=O)[C@H](CCCCN)NC(=O)[C@H](Cc1ccccc1)NC(=O)[C@H](Cc1ccccc1)NC(=O)[C@H](Cc1c[nH]cn1)NC(=O)[C@@H](NC(=O)[C@@H](N)C(C)C)C(C)C)C(=O)N[C@H](C(=O)N[C@H](C(=O)O)[C@@H](C)O)C(C)C [MBP86-95] (H-VVHFFKNIVT-OH; N-terminus and C-terminus assumed)

Molecule: Cy 4-18: synthetic peptide of human MBP sequence 4-18 with unnatural cysteine residue (CKRPSQRHGSKYLATA)
REACTIVITY WITH ANTI-MBP [1]: −

Molecule: Cy 11-24: synthetic peptide of human MBP sequence 11-24 with unnatural cysteine residue (CGSKYLATASTMDHA)
REACTIVITY WITH ANTI-MBP [1]: −

Molecule: Cy 51-64 Gly: synthetic peptide of human MBP sequence 51-64 with added Cy and Gly (CAPKRGSGKDSHHPAG)
REACTIVITY WITH ANTI-MBP [1]: +

Molecule: Cy 127-140: synthetic peptide of human MBP sequence 127-140 with unnatural cysteine residue (CYGGRASDYKSAHKG)
REACTIVITY WITH ANTI-MBP [1]: −

Molecule: Cy 136-149: synthetic peptide of human MBP sequence 136-149 with unnatural cysteine residue (CSAHKGFKGVDAQGT)
REACTIVITY WITH ANTI-MBP [1]: −

Molecule: HHPARTAHYGSLPQK [MBP61-75]
neutralization of purified anti-MBP [1]: partially neutralized | REACTIVITY WITH ANTI-MBP [1]: +

Molecule: KNIVTPRTPPPSQGKG [MBP91-106]
neutralization of anti-MBP purified from individual patients [1]: completely neutralized | times less effective on a molar basis than intact MBP at causing inhibition [1]: approximately 100 times | neutralization of purified anti-MBP [1]: completely neutralized | REACTIVITY WITH ANTI-MBP [1]: −

Molecule: MBP35-58: non-binding, control synthetic peptide of human MBP, residues 35-58 (TGILDSIGRFFGGDRGAPKRGSGK)
REACTIVITY WITH ANTI-MBP [1]: − | CSF F anti-MBP (CSF anti-MBP; single intrathecal injection 5 mg): remained elevated at baseline level | CSF F anti-MBP (CSF anti-MBP; single intrathecal injection 10 mg, chronic progressive MS): persistently elevated | F and B levels of CSF anti-MBP (CSF anti-MBP; single intrathecal injection 1, 2.5, 5 or 10 mg, 24 hour experiment, chronic progressive MS): remained unchanged; also recorded: remained unaffected | CSF F (free) anti-MBP (CSF anti-MBP; single intrathecal injection, increasing amounts 1-10 mg, chronic progressive MS): did not react

Molecule: Thr Gln Asp Glu Asn Pro Val Val His Phe Phe Lys Asn Ile Val Thr Pro Arg (CTQDENPVVHFFKNIVTPRG) [MBP80-97]
neutralization of anti-MBP purified from individual patients [1]: completely neutralized | times less effective on a molar basis than intact MBP at causing inhibition [1]: approximately 100 times | neutralization of purified anti-MBP [1]: completely neutralized | REACTIVITY WITH ANTI-MBP [1]: ++

Molecule: YGSLPQKSHGRTQDE [MBP69-83]
neutralization of purified anti-MBP [1]: partially neutralized | REACTIVITY WITH ANTI-MBP [1]: ++

times less effective on a molar basis than intact MBP at causing inhibition [3]: 100 times
B1: peptide MBP91-106 (Cy 91-106) (peptide)
peptide: CKNIVTPRTPPPSQGKG

times less effective on a molar basis than intact MBP at causing inhibition [3]: 100 times
B2: peptide MBP75-95 (Cy 75-95, Example 1) (peptide)
peptide: CKSHGRTQDENPVVHFFKNIVT

percent inhibition [4]: > 80% | percent inhibition [5]: > 80%
B3: decapeptide MBP85-94 (peptide)
peptide: PVVHFFKNIV

percent inhibition [4]: > 80% | percent inhibition [5]: > 80%
B4: decapeptide MBP87-96 (peptide)
peptide: VHFFKNIVTP

decrease in F anti-MBP level in CSF after one intrathecal injection of 1 mg MBP75-95 (patient 6F53) [6]: 75% | percent inhibition [4]: 100% | percent inhibition [5]: 100%
B5: synthetic peptide MBP75-95 (Example 2 and later) (peptide)
peptide: KSHGRTQDENPVVHFFKNIVT

times less effective on a molar basis than intact MBP at causing inhibition [3]: 100 times
B6: peptide MBP80-97 (Cy 80-97 Gly) (peptide)
peptide: CTQDENPVVHFFKNIVTPRG

percent inhibition [4]: > 80% | percent inhibition [5]: > 80%
B7: decapeptide MBP84-93 (peptide)
peptide: NPVVHFFKNI

percent inhibition [7]: > 95% | percent inhibition [4]: > 80% | percent inhibition [5]: > 80%
B8: decapeptide MBP86-95 (peptide)
peptide: VVHFFKNIVT
